Data reported in paper PMC6278453, “Effects of Osthol Isolated from Cnidium monnieri Fruit on Urate Transporter 1” (Molecules, 2018).
Values belong to the molecule of their own block, whether it stands above or below them.

What was measured:
Type in all cases: cell-based
[1] = target: T1, urate transporter 1 (URAT1) (Homo sapiens, UniProt Q96S37); assay: [[…]-14C]uric acid uptake in URAT1-transfected HEK293/PDZK1 cells, single concentration […]; settings: read-out: Urate Uptake (% of Control)
T1 construct: gene SLC22A12; human URAT1 cDNA in pCMV-SPORT6, transiently transfected into HEK293/PDZK1 cells
T1 sequence (Q96S37 1-553): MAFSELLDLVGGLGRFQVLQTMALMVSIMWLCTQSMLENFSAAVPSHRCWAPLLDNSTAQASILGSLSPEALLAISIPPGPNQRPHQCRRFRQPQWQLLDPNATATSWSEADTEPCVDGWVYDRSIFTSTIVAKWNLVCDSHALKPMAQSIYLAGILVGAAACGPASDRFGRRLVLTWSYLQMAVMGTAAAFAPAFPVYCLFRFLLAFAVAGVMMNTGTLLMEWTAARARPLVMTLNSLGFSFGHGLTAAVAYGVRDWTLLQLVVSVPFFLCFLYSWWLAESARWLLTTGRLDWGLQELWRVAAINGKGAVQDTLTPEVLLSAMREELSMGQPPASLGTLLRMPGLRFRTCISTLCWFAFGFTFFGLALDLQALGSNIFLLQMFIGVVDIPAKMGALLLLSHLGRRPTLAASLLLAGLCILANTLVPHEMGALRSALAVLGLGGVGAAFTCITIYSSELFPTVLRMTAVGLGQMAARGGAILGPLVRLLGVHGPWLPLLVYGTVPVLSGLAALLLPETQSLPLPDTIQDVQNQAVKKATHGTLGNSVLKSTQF

[2] = target: T1, urate transporter 1 (URAT1); assay: radiolabelled uptake, […], Lineweaver-Burk plot
[3] = target: T1, urate transporter 1 (URAT1); assay: [[…]-14C]uric acid uptake in URAT1-transfected HEK293/PDZK1 cells, mock-subtracted; Lineweaver-Burk kinetics

- remaining activity at 100 µM [1]: 31 ± 4%
SMILES: CC(C)=CCc1c(O)ccc2ccc(=O)oc12 [osthenol]

SMILES: O=c1[nH]c(=O)c2[nH]c(=O)[nH]c2[nH]1 [uric acid]
- radiolabelled uptake, 25-200 μM, Lineweaver-Burk plot [2]: The uptakes of uric acid into the cells (V) were measured, and a Lineweaver–Burk plot was made.

SMILES: COc1ccc2ccc(=O)oc2c1CC=C(C)C [compound 1, osthol]
- IC50 [3]: 78.8 µM
